The results in this text go back to paper PMC5122590, “Identification of a Dolabellane Type Diterpene Synthase and other Root-Expressed Diterpene Synthases in Arabidopsis” (Frontiers in Plant Science, 2016).

In test [1] the target is T1, TPS22 (Arabidopsis thaliana, UniProt Q9LQ27).
T1 construct: N-terminal 41 aa (transit peptide) removed; TOPO-pET102; E. coli; partially purified
T1 sequence (Q9LQ27 42-603): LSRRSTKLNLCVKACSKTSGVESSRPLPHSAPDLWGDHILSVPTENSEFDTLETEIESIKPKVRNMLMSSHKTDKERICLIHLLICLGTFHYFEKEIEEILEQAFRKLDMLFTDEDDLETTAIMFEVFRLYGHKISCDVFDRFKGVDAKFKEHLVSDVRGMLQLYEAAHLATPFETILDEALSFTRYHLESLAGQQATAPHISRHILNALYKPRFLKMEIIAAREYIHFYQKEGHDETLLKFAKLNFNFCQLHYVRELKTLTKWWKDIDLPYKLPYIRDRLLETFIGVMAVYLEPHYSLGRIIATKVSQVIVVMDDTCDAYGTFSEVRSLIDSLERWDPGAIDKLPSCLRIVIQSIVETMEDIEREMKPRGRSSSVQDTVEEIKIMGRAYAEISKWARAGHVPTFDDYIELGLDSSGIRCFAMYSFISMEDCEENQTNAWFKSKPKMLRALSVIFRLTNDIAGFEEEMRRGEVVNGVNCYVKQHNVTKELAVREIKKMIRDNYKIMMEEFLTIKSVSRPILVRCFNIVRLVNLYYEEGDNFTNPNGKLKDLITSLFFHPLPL
Briefly: in vitro assay, SPME-GC-MS. In kind it is biochemical. The following applies: main product (E)-beta-farnesene.

The target in test [2] is T2, TPS25 (Arabidopsis thaliana, UniProt Q9LIA1).
T2 construct: N-terminal 25 aa (transit peptide) removed; TOPO-pET102; E. coli; partially purified
T2 sequence (Q9LIA1 26-603): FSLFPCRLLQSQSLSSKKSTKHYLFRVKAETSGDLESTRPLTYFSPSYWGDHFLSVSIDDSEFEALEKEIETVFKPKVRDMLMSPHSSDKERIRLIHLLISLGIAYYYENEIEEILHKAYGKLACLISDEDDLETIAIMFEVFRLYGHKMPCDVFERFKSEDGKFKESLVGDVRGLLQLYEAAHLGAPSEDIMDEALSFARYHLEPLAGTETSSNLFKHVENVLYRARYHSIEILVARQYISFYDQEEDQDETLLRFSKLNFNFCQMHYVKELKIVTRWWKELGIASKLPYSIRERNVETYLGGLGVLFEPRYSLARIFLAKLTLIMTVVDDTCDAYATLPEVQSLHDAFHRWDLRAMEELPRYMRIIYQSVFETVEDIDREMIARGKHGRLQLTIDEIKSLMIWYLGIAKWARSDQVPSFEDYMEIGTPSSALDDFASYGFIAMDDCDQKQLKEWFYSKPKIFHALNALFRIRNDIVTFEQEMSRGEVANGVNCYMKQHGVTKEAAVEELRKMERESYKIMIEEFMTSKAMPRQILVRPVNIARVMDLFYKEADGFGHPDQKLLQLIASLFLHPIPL
Briefly: in vitro assay, SPME-GC-MS. The test is classed as biochemical. As to conditions: main product (E)-beta-farnesene.

For test [3], the target named is T3, TPS26 (Arabidopsis thaliana, UniProt Q9C8E3).
T3 construct: N-terminal 38 aa removed; pET28a; RIKEN cDNA clone; expressed in E. coli with prenyl diphosphate synthase
T3 sequence (Q9C8E3 39-598): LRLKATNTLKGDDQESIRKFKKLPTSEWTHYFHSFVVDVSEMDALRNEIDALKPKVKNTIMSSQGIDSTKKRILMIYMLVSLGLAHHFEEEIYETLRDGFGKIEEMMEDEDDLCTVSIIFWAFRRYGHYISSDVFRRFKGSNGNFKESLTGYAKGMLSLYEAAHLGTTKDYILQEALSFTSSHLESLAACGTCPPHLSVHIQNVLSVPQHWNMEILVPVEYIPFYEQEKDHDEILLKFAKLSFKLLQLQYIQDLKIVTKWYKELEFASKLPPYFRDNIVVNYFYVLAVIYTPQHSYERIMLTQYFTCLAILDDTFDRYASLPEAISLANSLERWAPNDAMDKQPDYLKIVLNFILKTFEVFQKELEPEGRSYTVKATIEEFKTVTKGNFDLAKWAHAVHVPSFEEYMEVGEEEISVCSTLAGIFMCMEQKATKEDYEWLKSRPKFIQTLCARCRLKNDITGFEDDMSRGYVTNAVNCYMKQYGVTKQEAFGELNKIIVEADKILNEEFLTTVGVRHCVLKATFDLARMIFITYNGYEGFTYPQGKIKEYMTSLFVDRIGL
Briefly: E. coli coexpression with (E,E)-FPP synthase, GC-MS. As to conditions: trace alpha-humulene and (E)-beta-farnesene formed. The test is classed as cell-based.

Test [4] has as its target T4, TPS9 (Arabidopsis thaliana, UniProt Q8L7G4).
T4 construct: gene TPS09; pET Duet; no truncation stated; RIKEN full-length cDNA clone; expressed in E. coli with prenyl diphosphate synthase
T4 sequence (Q8L7G4 1-607): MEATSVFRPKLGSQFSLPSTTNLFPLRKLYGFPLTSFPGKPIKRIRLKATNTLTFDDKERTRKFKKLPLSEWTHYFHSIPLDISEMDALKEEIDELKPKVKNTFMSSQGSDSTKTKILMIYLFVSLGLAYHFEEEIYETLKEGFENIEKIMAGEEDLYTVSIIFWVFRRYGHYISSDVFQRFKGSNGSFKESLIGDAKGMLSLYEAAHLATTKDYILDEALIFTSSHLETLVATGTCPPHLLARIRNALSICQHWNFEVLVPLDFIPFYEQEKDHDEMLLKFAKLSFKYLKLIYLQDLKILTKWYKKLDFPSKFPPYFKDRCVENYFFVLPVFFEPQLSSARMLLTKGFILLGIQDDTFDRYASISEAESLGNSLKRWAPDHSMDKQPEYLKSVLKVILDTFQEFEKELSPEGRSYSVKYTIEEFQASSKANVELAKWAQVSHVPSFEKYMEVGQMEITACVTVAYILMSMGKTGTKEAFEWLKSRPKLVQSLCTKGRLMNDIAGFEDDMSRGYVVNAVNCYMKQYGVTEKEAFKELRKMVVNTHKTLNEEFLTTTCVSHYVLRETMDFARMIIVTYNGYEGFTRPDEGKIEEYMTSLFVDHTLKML
The description is as above. The test is classed as cell-based. The following applies: trace nerolidol and (E)-beta-farnesene formed.

For test [5], the target named is T5, TPS6c (Arabidopsis thaliana, UniProt Q84UU9).
T5 construct: gene TPS06; N-terminal 53 aa removed; pET28a; expressed in E. coli with GGPP synthase
T5 sequence (Q84UU9 54-611): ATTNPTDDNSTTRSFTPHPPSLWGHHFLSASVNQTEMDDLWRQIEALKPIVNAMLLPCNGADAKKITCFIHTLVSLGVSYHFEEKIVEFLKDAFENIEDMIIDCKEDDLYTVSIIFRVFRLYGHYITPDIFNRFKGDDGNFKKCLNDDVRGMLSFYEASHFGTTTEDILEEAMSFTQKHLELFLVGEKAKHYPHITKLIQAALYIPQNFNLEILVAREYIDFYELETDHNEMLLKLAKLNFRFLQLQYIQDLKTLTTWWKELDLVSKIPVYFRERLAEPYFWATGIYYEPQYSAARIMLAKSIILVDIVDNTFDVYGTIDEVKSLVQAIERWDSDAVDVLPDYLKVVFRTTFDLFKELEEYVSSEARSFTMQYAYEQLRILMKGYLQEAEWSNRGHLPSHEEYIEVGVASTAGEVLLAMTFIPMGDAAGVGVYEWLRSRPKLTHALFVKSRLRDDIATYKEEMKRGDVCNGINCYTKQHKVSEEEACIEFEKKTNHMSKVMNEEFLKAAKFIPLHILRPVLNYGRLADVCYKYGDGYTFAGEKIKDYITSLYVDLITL
Briefly: E. coli coexpression with GGPP synthase, GC-MS. The following applies: product (3E,7E)-dolabella-3,7-dien-18-ol and an unknown diterpene. The test is classed as cell-based.

The target of test [6] is T6, TPS20c (Arabidopsis thaliana, UniProt Q9FI27).
T6 construct: gene TPS20; first 53 aa (plastid transit peptide) removed; N-terminal His-tag (pET28a NdeI/XhoI); E. coli; partially purified
T6 sequence (Q9FI27 54-575): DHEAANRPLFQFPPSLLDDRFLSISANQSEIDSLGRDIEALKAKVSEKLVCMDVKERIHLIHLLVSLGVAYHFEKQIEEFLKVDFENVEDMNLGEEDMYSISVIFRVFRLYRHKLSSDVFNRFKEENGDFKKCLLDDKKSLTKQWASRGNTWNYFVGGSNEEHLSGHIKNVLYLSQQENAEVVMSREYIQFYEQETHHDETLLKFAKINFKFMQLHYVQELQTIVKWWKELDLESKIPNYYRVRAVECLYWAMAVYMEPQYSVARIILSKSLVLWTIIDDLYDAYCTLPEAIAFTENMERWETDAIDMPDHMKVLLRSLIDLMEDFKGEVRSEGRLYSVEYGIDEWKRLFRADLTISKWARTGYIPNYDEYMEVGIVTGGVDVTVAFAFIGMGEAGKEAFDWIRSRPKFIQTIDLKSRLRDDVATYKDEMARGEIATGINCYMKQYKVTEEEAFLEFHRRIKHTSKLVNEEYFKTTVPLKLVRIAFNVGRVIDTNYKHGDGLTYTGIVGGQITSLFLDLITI
Nature of the test: radiochemical terpene synthase assay. In kind it is biochemical. The following applies: labelled compound ([1-3H]-GGPP); six concentrations, triplicate. The source says: radiochemical terpene synthase assay on TPS20c

The target in test [7] is T4, TPS9. Briefly: E. coli coexpression with GGPP synthase, GC-MS. As to conditions: unidentified diterpene olefins formed. The test is classed as cell-based.
For test [8], the target named is T7, TPS30 (Arabidopsis thaliana, UniProt Q9LH31).
T7 construct: N-terminal 48 aa removed; pET28a; expressed in E. coli with prenyl diphosphate synthase
T7 sequence (Q9LH31 49-604): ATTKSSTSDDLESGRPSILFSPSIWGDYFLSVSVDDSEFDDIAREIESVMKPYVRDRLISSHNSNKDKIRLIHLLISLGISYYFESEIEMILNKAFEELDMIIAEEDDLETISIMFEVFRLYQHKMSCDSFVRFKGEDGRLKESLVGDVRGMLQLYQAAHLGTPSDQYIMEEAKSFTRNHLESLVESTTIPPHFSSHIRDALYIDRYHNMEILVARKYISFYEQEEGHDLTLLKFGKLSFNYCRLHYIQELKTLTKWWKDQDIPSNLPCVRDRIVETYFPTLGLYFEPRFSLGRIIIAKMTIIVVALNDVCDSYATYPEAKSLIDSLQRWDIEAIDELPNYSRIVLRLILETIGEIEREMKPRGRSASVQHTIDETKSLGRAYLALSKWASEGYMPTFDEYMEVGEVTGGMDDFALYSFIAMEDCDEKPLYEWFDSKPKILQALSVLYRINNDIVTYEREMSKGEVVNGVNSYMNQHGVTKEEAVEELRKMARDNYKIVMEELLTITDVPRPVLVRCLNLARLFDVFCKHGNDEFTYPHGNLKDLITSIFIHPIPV
Nature of the test: E. coli coexpression with GGPP synthase, GC-MS. In kind it is cell-based. The following applies: two unknown diterpenes formed.

For the compound `CC(C)=CCC/C(C)=C/CC/C(C)=C/COP(=O)(O)OP(=O)(O)O` [(E,E)-FPP], the “in vitro assay, SPME-GC-MS” value in test [1] and in test [2] was “both proteins converted (E,E)-FPP into sesquiterpenes in vitro with (E)-β-farnesene as the main compound” throughout. The “E. coli coexpression with (E,E)-FPP synthase, GC-MS” value in test [3] was “trace amounts of α-humulene and (E)-β-farnesene being produced by TPS26”; in test [4], “When co-expressed with (E,E)-FPP synthase, TPS9 produced trace amounts of nerolidol and (E)-β-farnesene”.

As to `CC(C)=CCC/C(C)=C/CC/C(C)=C/CC/C(C)=C/COP(=O)(O)OP(=O)(O)O` [GGPP], the “E. coli coexpression with GGPP synthase, GC-MS” value in test [5] was “TPS6c reacts with GGPP to produce dolabelladienol and an unknown diterpene”; in test [7], “TPS9 converted GGPP to one predominant diterpene olefin and eight minor diterpene products”; in test [8], “protein encoded by gene TPS30 reacted with GGPP to form two unknown diterpenes”. In addition, the Km in test [6] turned out to be 6.29 ± 0.24 µM.

By Km is commonly meant the substrate concentration at which the rate is half of its maximum.
